# Test results as given in patent US8722729B2, “Unsaturated fatty acid monoesters and diesters on ascorbic acid and cosmetic uses thereof” (Pierre Fabre Dermo-Cosmetique, priority 2009, dated 2014).
# Marks after values point to notes of the source that are not given here.
# Legend:
# [1] = test system: MMP-3; experiment: Gene expression of MMP-3 in human dermal fibroblasts treated with H2O2 (real-time PCR); assay type: cell-based; conditions: for RQ (relative quantity of mRNA) MMP-3 / % Inhibition of the level of mRNA expression MMP-3: 3 μM; for RQ (relative quantity of mRNA) MMP-3: senescent fibroblasts stimulated with H2O2, non-treated control = 1; for % Inhibition of the level of mRNA expression MMP-3: vs H2O2 alone
# Procedure: (§1) To evidence the activity of the compounds of general formula (I) against skin ageing and against inflammation, the effect of these compounds was measured on the gene expression of MMP-1, MMP-3 and IL8 in human dermal fibroblasts treated with H2O2, thereby mimicking the process of cellular senescence. The effect of these compounds of general formula (I) was also measured on the synthesis of hyaluronic acid and on hyaluronidase activity. The stimulation of the synthesis of hyaluronic acid also allows skin hydration to be improved and/or restored (Bissett D L. J. Cosmet. Dermatol. 2006 Dec. 5(4): 309-15. Glucosamine: an ingredient with skin and other benefits).
# (§2) Human dermal fibroblasts (isolated from discarded operative skin) were cultured in DMEM culture medium+10% FCS. The cells were pre-treated with vitamin C and the compound to be tested for 16 h at 37° C. and then stimulated with H2O2. The cells were then replaced in DMEM with vitamin C and dioctadeca-9,12-dienoate of (9Z,9′Z,12Z,12′Z)-2-(2,2-dimethyl-1,3-dioxolan-4-yl)-5-oxo-2,5-dihydrofuran-3,4-diyl. 72 hours after ending of stress, the fibroblasts entered into senescence: the senescent fibroblasts no longer proliferate but remain metabolically active (Hayflick, J. Invest. Dermatol., 73; 8-14, 1979). The cells were then lysed with the lysis buffer of the RNeasy® kit (QIAGEN).
# (§3) The extracted RNAs were converted to complementary DNA following the indications of the Quantitect Reverse Transcription kit by Qiagen. Real-time PCR analyses were conducted using an iQ cycler fluorescence thermocycler (BIO-RAD).
# (§4) The level of expression of the mRNAs coding for MMP-1, MMP-3, IL8 was analyzed using the real-time PCR technique. To normalize the level of expression of the gene of interest, the analysis strategy developed by Vandesompela et al., Genome Biol. 3: RESEARCH0034 (2002) was chosen. […] In our model, the three tested reference genes were the following: β-actin (Human β-actin), GAPDH (Human glyceraldehyde-3-phosphate dehydrogenase) and YWHAZ (Tyrosine-3-monooxygenase, tryptopgan-5-monooxygenase activation protein zeta polypeptide).
# (§5) The first step normalizes the Ct values obtained for the gene of interest in relation to the Ct values obtained for the reference gene, for each experimental condition.
# (§6) The following was therefore calculated: ΔCt=Ctgene of interest−Ctreference gene
# (§7) The second step of the calculation determines the variation in the number of copies of the gene of interest during treatment. To do so ΔΔCt is calculated: ΔΔCt=ΔCtnon-treated NHF−ΔCttreated NHF
# (§8) For the non-treated control, this QR is therefore equal to 1. It is then possible to calculate an induction or inhibition factor of the gene of interest compared with this control.
# (§9) Statistical analysis was performed using a test called “one-way ANOVA”. Variance analysis using the Dunnett test then allows the comparing, for each of the analyzed genes, of the ΔCt values of normal adult fibroblasts with the compounds in the presence of H2O2 in both cases. This test then gives the “p value” characterizing the significance of the results obtained for both conditions The degree of significance was established as follows: • significant for p<0.05(*) • very significant for p<0.005(**) • highly significant for p<0.001(***) • non-significant for p>0.05. […]
# (§10) It is also possible to calculate percentage inhibition of the level of expression of the different mRNAs by the active ingredients to be evaluated, using the formula: […]
# [2] = test system: IL-8; experiment: Gene expression of IL8 in human dermal fibroblasts treated with H2O2 (real-time PCR); assay type: cell-based; conditions: for RQ (relative quantity of mRNA) IL-8 / % Inhibition of the level of mRNA expression IL-8: 3 μM; for RQ (relative quantity of mRNA) IL-8: senescent fibroblasts stimulated with H2O2, non-treated control = 1; for % Inhibition of the level of mRNA expression IL-8: vs H2O2 alone
# Procedure: as §1, §2, §3, §4, §5, §6, §7, §8, §9, §10
# [3] = test system: B16-F10 cells; experiment: Assay of melanin in B16-F10 cells (colorimetric, α-MSH stimulated); assay type: cell-based, murine; conditions: for inhibition at 10 µM / inhibition at 20 µM / inhibition at 50 µM / inhibition at 100 µM: B16-F10, 72 hours, read-out: Percentage inhibition of intracellular melanin
# Procedure: Similarly, to evidence the depigmenting activity of the compounds of general formula (I) according to the invention, the effect of these compounds was measured on the synthesis of melanin by colorimetric assay on a cell line of murine melanomas: line B16-F10.
# This is a test to measure the synthesis of melanin by colorimetric assay on a cell line of murine melanomas: line B16-F10. This test allows the evaluation of the depigmenting property of active ingredients.
# The B16-F10 cells were seeded onto 96-well plates in DMEM medium supplemented with FCS (fetal calf serum) and incubated 24 hours at 37° C., 5% CO2. The cells were then stimulated with α-MSH (to stimulate the synthesis of melanin, the stimulation observed was about 150%) and treated 72 hours with the active ingredients to be tested. Each concentration of active ingredient was tested at least in triplicate. Total melanin followed by intracellular melanin dissolved in lysis buffer were then assayed by absorbency reading at 405 nm. The total proteins were determined in the lysate and the results are expressed in mg melanin/mg proteins. The percentage activity was calculated as follows: […]
# A negative value indicates an inhibition, whereas a positive value indicates induced synthesis of melanin.
# [4] = test system: keratinocytes HaCaT; experiment: Assay of the synthesis of hyaluronic acid in HaCaT keratinocytes (ELISA); assay type: cell-based, human; conditions: for Percentage stimulation of the synthesis of hyaluronic acid: 48 h, vs control
# Procedure: The keratinocytes HaCaT are cultured in DMEM culture medium+10% FCS. The cells are treated with the active ingredients to be tested (Table 1) for 48 h at 37° C. The synthesized hyaluronic acid (HA) is assayed in the culture medium using an ELISA type kit (Echelon®).
# The percentage activity was determined as follows • percentage variation compared with the control %p/C=([HA]active ingred./[HA]control×100)−100 4.4.2 Results of the Assay of Hyaluronic Acid on the Line of Human Keratinocytes HaCaT
"IC50 ([3]; Mus musculus, B16-F10, α-MSH stimulated, read-out: IC50 intracellular melanin) [µM]",SMILES,RQ (relative quantity of mRNA) MMP-3 [1],% Inhibition of the level of mRNA expression MMP-3 [1],RQ (relative quantity of mRNA) IL-8 [2],% Inhibition of the level of mRNA expression IL-8 [2],inhibition at 10 µM ([3]; Mus musculus) [%],inhibition at 20 µM ([3]; Mus musculus) [%],inhibition at 50 µM ([3]; Mus musculus) [%],inhibition at 100 µM ([3]; Mus musculus) [%],Percentage stimulation of the synthesis of hyaluronic acid ([4]; 30 μM) [%],Percentage stimulation of the synthesis of hyaluronic acid ([4]; 300 μM) [%],Effect on the synthesis of hyaluronic acid ([4]; 30 and 300 μM),Inhibition of MMP3 expression compared with ascorbic acid [1],Inhibition of IL-8 expression compared with ascorbic acid [2],Inhibition of the synthesis of intracellular melanin compared with vitamin C [3],Percentage stimulation of the synthesis of hyaluronic acid ([4]; 2 μM) [%],Percentage stimulation of the synthesis of hyaluronic acid ([4]; 20 μM) [%]
–,"O=C1O[C@H]([C@@H](O)CO)C(O)=C1O [Ascorbic acid, ascorbic acid]",3.5,50* %,1.2,92*** %,-5,7,5,22,9,19,no effect,–,–,–,–,–
67,"CCCCC/C=C\C/C=C\CCCCCCCC(=O)OC1=C(OC(=O)CCCCCCC/C=C\C/C=C\CCCCC)C(C2COC(C)(C)O2)OC1=O (stereo not shown) [Molecule 1, diactodeca-9,12-dienoate of (9Z,9′Z,12Z,12′Z)-2-(2,2-dimethyl-1,3-dioxolan-4-yl)-5-oxo-2,5-dihydrofuran-3,4-diyl]",1.9,81*** %,0.9,102*** %,9,21,41,71,–,–,–,"more substantially inhibits the expression of MMP1, MMP3 and IL-8 than ascorbic acid","more substantially inhibits the expression of MMP1, MMP3 and IL-8 than ascorbic acid",greater than that of vitamin C,132,70
